Measured values taken from the supplement of paper PMC12076712.

How the values were obtained:
UniProt O96017 = experiment: pIC50, competition of probe 3 labelling in live cells; conditions: cell material: Jurkat cells
NEK9 = target: T1, NEK9 (UniProt Q8TD19); experiment: as above; conditions: cell material: Jurkat cells
T1 sequence (whole entry): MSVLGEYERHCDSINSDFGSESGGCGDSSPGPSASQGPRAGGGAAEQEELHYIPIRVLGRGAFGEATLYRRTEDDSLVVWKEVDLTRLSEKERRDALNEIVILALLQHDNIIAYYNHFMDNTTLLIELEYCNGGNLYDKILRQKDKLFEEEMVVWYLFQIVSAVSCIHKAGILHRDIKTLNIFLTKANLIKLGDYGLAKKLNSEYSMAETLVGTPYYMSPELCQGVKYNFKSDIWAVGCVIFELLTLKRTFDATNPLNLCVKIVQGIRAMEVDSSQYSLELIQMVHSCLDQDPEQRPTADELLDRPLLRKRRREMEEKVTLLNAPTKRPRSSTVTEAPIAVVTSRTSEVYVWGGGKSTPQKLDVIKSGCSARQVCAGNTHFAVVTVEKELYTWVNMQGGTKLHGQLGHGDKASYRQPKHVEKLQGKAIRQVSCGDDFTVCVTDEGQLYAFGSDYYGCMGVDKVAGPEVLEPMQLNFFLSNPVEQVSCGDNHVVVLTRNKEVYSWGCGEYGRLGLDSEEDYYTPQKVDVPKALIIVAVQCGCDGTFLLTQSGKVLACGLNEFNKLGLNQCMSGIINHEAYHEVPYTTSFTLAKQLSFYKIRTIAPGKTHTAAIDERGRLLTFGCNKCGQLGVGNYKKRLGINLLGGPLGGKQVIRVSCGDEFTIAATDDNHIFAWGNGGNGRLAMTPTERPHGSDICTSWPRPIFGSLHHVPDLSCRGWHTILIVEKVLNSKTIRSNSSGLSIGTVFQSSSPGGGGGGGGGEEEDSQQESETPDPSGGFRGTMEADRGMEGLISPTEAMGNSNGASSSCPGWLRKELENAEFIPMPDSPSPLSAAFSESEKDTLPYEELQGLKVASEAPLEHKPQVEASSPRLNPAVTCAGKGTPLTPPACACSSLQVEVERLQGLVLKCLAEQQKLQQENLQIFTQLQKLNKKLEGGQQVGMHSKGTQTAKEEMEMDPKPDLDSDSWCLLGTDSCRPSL

UniProt Q14289 = experiment: as above; conditions: cell material: Jurkat cells
UniProt Q14289, sequence (Q14289 whole entry, looked up): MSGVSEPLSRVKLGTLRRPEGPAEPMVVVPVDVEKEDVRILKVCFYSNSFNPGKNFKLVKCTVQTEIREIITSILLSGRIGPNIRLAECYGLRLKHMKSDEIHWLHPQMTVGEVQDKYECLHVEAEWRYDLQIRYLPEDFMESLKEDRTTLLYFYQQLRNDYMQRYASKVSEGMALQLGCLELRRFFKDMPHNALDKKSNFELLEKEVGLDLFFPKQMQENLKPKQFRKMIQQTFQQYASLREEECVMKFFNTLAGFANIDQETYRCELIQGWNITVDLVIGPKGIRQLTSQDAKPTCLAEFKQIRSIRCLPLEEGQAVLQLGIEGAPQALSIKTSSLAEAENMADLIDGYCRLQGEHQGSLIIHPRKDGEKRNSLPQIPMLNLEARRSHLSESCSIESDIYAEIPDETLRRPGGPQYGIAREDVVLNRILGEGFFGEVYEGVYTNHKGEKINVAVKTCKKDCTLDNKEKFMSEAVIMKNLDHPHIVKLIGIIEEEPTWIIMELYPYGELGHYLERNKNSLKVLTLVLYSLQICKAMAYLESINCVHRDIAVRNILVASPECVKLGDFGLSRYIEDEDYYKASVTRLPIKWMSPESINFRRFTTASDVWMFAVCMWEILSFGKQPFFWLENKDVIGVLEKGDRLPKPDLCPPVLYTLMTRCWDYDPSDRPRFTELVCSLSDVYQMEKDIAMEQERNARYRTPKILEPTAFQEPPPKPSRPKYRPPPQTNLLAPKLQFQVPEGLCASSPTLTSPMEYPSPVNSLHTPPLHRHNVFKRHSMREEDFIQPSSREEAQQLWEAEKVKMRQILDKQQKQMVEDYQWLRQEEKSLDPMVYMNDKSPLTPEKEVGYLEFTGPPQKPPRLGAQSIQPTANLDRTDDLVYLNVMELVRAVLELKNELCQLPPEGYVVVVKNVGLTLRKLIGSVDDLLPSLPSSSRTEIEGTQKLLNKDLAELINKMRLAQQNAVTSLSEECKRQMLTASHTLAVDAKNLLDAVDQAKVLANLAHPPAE

ITK = target: T2, ITK (UniProt Q08881); experiment: as above; conditions: cell material: Jurkat cells
T2 sequence (whole entry): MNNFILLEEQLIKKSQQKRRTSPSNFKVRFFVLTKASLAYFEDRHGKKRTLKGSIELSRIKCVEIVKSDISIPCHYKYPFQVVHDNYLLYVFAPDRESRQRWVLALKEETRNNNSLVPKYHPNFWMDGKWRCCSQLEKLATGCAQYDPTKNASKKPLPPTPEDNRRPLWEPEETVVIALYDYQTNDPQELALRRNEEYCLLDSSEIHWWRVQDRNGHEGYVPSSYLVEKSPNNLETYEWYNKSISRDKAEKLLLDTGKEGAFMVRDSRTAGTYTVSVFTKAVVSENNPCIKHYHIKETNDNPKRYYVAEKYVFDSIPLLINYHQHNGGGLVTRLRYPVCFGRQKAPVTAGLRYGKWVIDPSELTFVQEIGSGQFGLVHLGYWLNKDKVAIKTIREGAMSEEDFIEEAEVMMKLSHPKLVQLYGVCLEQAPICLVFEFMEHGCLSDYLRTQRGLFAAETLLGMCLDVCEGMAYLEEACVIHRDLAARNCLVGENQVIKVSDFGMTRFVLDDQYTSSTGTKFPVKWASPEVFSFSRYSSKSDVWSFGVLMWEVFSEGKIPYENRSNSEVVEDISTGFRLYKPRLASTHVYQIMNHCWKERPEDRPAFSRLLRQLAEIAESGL

MAPK12 = MAPK12 (UniProt P53778); experiment: as above; conditions: cell material: Jurkat cells
MAPK12, sequence (P53778 whole entry): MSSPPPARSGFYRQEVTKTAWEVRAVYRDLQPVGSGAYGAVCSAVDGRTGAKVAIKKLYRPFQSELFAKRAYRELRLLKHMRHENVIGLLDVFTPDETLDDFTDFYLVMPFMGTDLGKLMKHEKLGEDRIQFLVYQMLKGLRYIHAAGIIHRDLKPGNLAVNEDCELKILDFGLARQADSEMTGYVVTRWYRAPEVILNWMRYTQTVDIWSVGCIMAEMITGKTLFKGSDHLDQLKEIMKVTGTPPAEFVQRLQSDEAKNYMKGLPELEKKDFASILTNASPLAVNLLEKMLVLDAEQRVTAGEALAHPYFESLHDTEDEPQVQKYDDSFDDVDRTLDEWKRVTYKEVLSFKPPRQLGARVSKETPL

IRAK4 = target: T3, IRAK4 (UniProt Q9NWZ3); experiment: as above; conditions: cell material: Jurkat cells
T3 sequence (whole entry): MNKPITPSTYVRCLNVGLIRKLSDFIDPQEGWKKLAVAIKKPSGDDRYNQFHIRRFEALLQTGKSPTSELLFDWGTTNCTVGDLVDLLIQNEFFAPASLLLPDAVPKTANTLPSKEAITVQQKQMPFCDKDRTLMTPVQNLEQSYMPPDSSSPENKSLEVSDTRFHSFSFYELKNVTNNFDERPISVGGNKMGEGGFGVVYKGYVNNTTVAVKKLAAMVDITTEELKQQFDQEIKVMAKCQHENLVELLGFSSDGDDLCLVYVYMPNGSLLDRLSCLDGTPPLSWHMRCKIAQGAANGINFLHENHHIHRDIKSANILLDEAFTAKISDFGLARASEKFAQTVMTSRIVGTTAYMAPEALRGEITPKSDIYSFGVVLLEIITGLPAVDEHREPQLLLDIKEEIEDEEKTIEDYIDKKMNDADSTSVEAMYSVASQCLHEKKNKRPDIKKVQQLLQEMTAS

STK35 = STK35 (UniProt Q8TDR2); experiment: as above; conditions: cell material: Jurkat cells
STK35, sequence (Q8TDR2 whole entry): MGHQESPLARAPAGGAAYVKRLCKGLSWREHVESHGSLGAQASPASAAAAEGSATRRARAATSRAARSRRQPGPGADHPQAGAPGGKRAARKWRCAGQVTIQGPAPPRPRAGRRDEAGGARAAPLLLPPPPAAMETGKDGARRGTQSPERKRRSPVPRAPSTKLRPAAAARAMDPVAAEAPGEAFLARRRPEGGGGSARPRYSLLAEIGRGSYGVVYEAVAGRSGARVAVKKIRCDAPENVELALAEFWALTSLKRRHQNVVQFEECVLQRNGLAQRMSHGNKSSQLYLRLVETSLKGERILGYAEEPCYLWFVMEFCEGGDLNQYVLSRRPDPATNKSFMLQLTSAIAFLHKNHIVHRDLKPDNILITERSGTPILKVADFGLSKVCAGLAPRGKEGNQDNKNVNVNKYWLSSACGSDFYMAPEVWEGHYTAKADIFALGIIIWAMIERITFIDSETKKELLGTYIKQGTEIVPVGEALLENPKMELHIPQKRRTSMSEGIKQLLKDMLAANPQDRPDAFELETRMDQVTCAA

GSTM1 = GSTM1 (UniProt P09488); experiment: as above; conditions: cell material: Jurkat cells
GSTM1, sequence (P09488 whole entry): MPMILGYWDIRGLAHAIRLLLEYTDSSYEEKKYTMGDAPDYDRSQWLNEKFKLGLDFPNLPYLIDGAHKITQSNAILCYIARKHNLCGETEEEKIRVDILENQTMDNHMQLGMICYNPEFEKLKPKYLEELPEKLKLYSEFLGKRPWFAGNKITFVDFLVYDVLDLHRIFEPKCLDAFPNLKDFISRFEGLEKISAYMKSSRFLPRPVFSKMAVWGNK

LIMK2 = LIMK2 (UniProt P53671); experiment: as above; conditions: cell material: Jurkat cells
LIMK2, sequence (P53671 whole entry, looked up): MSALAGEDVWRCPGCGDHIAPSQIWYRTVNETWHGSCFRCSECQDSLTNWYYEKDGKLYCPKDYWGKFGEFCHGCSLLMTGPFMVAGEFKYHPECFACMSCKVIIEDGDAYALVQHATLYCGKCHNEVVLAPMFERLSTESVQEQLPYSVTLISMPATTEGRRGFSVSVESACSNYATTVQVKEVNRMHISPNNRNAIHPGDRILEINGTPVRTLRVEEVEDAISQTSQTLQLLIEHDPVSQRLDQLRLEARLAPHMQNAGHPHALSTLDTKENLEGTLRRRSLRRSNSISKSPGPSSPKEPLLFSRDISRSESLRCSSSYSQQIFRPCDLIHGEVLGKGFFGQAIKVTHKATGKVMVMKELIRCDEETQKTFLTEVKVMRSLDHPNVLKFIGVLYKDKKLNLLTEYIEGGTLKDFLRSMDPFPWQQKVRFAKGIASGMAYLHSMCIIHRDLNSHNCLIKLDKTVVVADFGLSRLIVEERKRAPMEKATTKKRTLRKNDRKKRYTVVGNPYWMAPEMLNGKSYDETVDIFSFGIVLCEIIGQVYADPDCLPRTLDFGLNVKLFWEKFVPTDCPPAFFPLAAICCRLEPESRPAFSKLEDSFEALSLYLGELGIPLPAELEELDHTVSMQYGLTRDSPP

STK33 = STK33 (UniProt Q9BYT3); experiment: as above; conditions: cell material: Jurkat cells
STK33, sequence (Q9BYT3 whole entry, looked up): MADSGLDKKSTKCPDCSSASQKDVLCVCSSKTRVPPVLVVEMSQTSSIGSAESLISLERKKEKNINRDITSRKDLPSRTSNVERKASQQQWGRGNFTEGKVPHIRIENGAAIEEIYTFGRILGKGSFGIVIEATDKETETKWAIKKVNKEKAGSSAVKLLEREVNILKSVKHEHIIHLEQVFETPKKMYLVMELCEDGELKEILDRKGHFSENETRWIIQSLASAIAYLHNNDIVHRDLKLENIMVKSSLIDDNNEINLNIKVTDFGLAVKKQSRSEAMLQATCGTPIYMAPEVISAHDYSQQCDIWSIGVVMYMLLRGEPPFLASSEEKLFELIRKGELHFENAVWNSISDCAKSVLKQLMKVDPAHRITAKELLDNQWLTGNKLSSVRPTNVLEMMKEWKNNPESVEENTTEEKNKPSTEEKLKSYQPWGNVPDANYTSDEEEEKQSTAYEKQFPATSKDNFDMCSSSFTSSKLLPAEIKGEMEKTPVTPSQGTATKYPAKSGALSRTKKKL

UniProt Q13163 = target: T4, UniProt Q13163; experiment: pIC50, kinobeads binding competition; conditions: cell material: Jurkat lysate
T4 sequence (whole entry): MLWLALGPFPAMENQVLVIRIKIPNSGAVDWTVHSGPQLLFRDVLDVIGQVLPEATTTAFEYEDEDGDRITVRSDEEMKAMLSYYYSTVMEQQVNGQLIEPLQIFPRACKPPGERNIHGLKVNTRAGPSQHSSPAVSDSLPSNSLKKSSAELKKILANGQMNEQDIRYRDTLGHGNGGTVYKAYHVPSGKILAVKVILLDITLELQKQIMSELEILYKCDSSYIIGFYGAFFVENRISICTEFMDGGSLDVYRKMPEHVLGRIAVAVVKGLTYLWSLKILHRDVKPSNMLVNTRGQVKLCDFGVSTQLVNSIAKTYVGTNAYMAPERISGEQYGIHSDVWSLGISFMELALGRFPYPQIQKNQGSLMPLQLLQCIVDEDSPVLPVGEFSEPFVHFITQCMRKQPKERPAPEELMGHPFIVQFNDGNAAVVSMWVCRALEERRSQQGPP

UniProt O96017, sequence (O96017 whole entry): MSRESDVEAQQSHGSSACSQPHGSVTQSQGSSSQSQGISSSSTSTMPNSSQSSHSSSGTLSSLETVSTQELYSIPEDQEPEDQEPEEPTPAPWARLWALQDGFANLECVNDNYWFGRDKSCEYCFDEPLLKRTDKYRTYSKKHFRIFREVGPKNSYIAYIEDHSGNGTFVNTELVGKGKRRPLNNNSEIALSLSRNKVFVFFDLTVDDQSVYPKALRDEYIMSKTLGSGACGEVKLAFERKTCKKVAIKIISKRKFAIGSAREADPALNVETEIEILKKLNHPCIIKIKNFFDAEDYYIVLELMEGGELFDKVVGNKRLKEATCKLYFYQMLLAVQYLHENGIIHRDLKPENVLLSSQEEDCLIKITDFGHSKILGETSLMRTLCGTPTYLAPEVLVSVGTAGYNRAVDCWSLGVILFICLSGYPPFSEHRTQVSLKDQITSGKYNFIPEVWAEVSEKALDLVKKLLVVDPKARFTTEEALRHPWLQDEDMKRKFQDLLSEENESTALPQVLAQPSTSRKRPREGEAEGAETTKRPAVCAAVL

Compound | pIC50 (UniProt O96017) | pIC50 (NEK9) | pIC50 (UniProt Q14289) | pIC50 (ITK) | pIC50 (MAPK12) | pIC50 (IRAK4) | pIC50 (STK35) | pIC50 (GSTM1) | pIC50 (LIMK2) | pIC50 (STK33) | pIC50 (UniProt Q13163)
CC#CC(=O)Nc1ccc2ncnc(Nc3cccc(Br)c3)c2c1 [EKI-785] | < 4.52 | < 4.52 | 4.62 | < 4.52 | 4.64 | < 4.52 | < 4.52 | < 4.52 | < 4.52 | < 4.52 | –
CCc1cnn2c(NCc3ccc[n+]([O-])c3)cc(N3CCCC[C@H]3CCO)nc12 [dinaciclib] | < 4.52 | < 4.52 | < 4.52 | < 4.52 | < 4.52 | < 4.52 | < 4.52 | < 4.52 | < 4.52 | < 4.52 | < 4.52
